Source: patent US20260137703A1, “2-AMINO-PYRIDO[2,3-D]PYRIMIDIN-7(8H)-ONE AND 7-AMINO-1-PYRIMIDO[4,5-D]PYRIMIDIN-2(1 H)-ONE DERIVATIVES AS EGFR INHIBITORS FOR THE TREATMENT OF CANCER” (Cancer Research Technology Limited, priority 2022, published 2026)
pIC50: −log10 of the molar value.

Experiments:
[1] = biological target: T1, Phospho-EGFR (Tyr1068) in H1975 cells (Homo sapiens, UniProt P00533, L858R/T790M); test: HTRF pEGFR/total EGFR in H1975 cells; format: cell-based; settings: ratio pEGFR/total EGFR, compound 3 hours
T1 construct: host or cells: H1975
T1 sequence (P00533 25-1210 T790M/L858R): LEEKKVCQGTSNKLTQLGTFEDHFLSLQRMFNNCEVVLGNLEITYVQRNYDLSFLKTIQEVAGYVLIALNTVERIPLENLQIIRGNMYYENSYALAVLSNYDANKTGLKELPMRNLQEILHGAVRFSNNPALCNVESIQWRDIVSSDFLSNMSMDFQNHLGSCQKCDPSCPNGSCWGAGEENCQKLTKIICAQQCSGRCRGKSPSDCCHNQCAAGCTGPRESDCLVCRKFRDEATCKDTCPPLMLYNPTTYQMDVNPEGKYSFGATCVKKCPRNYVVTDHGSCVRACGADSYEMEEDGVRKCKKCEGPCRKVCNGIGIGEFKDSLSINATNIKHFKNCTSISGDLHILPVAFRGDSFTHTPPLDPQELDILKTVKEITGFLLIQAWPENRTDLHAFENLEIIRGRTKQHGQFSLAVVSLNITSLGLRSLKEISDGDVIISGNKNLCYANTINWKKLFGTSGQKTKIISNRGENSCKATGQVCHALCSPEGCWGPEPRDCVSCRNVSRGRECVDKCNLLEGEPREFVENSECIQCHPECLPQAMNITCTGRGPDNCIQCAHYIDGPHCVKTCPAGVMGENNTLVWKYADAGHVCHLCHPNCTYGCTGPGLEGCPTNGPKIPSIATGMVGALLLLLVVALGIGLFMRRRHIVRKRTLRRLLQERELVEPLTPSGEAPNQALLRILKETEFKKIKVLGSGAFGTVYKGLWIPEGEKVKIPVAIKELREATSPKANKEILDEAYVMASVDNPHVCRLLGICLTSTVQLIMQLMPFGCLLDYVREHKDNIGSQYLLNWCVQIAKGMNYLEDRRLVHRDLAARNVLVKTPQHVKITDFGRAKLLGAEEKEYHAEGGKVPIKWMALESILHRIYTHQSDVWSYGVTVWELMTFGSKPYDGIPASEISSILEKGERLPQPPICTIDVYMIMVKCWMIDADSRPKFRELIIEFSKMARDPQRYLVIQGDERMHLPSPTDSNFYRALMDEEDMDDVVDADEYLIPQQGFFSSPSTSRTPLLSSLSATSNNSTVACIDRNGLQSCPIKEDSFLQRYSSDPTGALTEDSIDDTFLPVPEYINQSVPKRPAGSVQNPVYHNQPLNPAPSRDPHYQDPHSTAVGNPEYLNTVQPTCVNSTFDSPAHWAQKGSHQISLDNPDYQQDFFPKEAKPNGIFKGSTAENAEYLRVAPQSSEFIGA
Description: (§1) H1975 cells (ATCC CRL-5908) were plated at 20,000 cells per well in 96 well plates and placed at 37° C. 5% CO2. Once adhered (after 24 h) cells were treated with compounds dissolved in DMSO at a final concentration of 0.1% DMSO in media. Compounds were diluted in media then added to cells for 3 hours in duplicate. Compound and media were removed from the cells, then 50 ul of HTRF lysis buffer is added (lysis buffer was diluted from 4× stock to 1× in DI water, with 1% blocking agent also added). Cells were lysed on a plate shaker (2000 rpm) for 30 minutes at room temperature. pEGFR expression was monitored using the Cisbio Phospho-EGFR (Tyri068) cellular kit (64EG1PEH). Total EGFR expression was monitored using the Cisbio Total EGFR cellular kit (64NG1PEH) as per manufacturer's instructions. Fluorescence emission was read at two different wavelengths (665 nm and 620 nm) on a PheraStar. Results were calculated as ratio of pEGFR/total EGFR and then percentage of 0 μM control.

[2] = biological target: T2, Phospho-EGFR (Tyr1068) in H1975 C797S cells (CRISPR-edited EGFR C797S) (Homo sapiens, UniProt P00533, C797S/L858R/T790M); test: HTRF pEGFR/total EGFR in H1975 C797S cells; format: cell-based; settings: ratio pEGFR/total EGFR, compound 3 hours
T2 construct: host or cells: H1975 C797S (CRISPR-edited)
T2 sequence (P00533 25-1210 T790M/C797S/L858R): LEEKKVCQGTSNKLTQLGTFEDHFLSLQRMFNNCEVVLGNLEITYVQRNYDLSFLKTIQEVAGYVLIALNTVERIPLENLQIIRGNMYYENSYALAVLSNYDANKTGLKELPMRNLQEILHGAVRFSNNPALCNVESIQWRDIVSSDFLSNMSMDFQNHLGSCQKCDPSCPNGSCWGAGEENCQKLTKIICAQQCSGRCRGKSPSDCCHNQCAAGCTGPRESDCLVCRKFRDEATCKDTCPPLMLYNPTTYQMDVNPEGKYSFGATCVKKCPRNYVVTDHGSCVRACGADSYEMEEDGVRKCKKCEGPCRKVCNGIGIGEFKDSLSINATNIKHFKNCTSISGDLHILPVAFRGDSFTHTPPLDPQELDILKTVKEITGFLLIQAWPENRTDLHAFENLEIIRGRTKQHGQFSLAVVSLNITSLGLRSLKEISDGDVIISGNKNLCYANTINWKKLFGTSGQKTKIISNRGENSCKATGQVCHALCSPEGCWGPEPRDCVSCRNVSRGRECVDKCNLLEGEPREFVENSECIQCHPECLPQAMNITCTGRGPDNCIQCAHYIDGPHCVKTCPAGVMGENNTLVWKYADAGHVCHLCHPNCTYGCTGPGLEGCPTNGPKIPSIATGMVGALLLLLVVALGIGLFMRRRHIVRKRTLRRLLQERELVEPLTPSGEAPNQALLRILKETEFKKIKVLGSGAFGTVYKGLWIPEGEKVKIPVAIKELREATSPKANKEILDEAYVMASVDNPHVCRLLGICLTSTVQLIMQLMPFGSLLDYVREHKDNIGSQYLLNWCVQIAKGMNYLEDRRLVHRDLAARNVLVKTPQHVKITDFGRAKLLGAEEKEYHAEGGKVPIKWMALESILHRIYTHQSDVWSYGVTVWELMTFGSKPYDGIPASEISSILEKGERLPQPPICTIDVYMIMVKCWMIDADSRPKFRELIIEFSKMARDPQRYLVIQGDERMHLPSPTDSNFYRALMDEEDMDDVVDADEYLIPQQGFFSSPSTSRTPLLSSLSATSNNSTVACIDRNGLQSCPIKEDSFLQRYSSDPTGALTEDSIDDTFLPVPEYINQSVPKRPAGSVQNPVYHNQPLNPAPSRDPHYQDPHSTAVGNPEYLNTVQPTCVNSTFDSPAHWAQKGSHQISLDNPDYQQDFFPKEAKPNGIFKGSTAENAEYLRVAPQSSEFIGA
Description: as §1, with “[…]. Once” for “H1975 cells (ATCC CRL-5908) were plated at 20,000 cells per well in 96 well plates and placed at 37° C. 5% CO2. Once”, “buffer was” for “buffer is”, “Phospho-EGFR (Tyr1068)” for “Phospho-EGFR (Tyri068)”

[3] = biological target: T3, Phospho-EGFR (Tyr1068) in A431 cells (Homo sapiens, UniProt P00533); test: HTRF pEGFR/total EGFR in A431 cells with EGF stimulation; format: cell-based; settings: ratio pEGFR/total EGFR, compound 2.5 hours then 100 ng/ml EGF 30 mins
T3 construct: endogenous in cells; host or cells: A431
T3 sequence (P00533 25-1210): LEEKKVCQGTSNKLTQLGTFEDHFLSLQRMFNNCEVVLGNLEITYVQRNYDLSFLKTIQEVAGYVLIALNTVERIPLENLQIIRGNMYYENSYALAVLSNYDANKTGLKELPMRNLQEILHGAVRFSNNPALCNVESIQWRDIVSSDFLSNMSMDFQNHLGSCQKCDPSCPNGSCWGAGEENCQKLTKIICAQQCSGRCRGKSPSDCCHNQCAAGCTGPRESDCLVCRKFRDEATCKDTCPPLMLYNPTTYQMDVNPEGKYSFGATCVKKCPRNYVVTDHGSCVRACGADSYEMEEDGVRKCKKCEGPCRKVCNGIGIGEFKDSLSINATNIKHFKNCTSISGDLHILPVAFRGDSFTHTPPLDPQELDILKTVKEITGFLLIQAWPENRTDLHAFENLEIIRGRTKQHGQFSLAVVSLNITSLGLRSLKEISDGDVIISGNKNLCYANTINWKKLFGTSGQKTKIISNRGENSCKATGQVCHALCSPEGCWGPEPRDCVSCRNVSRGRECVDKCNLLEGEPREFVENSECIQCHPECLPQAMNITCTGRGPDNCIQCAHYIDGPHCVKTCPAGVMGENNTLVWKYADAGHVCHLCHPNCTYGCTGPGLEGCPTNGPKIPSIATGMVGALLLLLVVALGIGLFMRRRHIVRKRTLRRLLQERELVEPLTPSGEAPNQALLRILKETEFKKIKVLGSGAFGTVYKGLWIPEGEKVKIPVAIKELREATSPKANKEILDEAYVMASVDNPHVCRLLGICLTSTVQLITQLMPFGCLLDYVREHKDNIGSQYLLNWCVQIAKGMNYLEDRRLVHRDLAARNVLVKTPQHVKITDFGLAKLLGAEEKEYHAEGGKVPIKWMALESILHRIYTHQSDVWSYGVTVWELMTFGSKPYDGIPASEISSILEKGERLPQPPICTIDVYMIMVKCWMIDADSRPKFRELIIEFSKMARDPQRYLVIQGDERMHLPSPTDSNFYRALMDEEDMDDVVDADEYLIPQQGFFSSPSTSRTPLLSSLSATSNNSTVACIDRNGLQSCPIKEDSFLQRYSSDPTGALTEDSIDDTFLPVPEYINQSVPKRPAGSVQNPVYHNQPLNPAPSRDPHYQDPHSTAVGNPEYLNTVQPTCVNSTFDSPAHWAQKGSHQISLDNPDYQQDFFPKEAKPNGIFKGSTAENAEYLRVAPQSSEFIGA
Description: Cells were plated at 20,000 cells per well in 96 well plates and placed at 37° C. 5% CO2. Once adhered (after 24 h) cells were treated with compounds dissolved in DMSO at a final concentration of 0.1% DMSO in media. Compounds were diluted in media then added to cells for 2.5 hours in duplicate, 100 ng/ml EGF (ThermoFisher, PHG0311) was added to all compound treated cells as well as a control for 30 mins. Compound and media were removed from the cells, then 50 ul of HTRF lysis buffer was added (lysis buffer was diluted from 4× stock to 1× in DI water, with 1% blocking agent also added). Cells were lysed on a plate shaker (2000 rpm) for 30 minutes at room temperature. pEGFR expression was monitored using the Cisbio Phospho-EGFR (Tyr1068) cellular kit (64EG1PEH). Total EGFR expression was monitored using the Cisbio Total EGFR cellular kit (64NG1PEH) as per manufacturer's instructions. Fluorescence emission was read at two different wavelengths (665 nm and 620 nm) on a PheraStar. Results were calculated as ratio of pEGFR/total EGFR and then percentage of 0 μM control.

[4] = biological target: CtermHisTag-mEGFR Wild type (Homo sapiens, UniProt P00533); test: biochemical
Chain of CtermHisTag-mEGFR Wild type (P00533 whole entry): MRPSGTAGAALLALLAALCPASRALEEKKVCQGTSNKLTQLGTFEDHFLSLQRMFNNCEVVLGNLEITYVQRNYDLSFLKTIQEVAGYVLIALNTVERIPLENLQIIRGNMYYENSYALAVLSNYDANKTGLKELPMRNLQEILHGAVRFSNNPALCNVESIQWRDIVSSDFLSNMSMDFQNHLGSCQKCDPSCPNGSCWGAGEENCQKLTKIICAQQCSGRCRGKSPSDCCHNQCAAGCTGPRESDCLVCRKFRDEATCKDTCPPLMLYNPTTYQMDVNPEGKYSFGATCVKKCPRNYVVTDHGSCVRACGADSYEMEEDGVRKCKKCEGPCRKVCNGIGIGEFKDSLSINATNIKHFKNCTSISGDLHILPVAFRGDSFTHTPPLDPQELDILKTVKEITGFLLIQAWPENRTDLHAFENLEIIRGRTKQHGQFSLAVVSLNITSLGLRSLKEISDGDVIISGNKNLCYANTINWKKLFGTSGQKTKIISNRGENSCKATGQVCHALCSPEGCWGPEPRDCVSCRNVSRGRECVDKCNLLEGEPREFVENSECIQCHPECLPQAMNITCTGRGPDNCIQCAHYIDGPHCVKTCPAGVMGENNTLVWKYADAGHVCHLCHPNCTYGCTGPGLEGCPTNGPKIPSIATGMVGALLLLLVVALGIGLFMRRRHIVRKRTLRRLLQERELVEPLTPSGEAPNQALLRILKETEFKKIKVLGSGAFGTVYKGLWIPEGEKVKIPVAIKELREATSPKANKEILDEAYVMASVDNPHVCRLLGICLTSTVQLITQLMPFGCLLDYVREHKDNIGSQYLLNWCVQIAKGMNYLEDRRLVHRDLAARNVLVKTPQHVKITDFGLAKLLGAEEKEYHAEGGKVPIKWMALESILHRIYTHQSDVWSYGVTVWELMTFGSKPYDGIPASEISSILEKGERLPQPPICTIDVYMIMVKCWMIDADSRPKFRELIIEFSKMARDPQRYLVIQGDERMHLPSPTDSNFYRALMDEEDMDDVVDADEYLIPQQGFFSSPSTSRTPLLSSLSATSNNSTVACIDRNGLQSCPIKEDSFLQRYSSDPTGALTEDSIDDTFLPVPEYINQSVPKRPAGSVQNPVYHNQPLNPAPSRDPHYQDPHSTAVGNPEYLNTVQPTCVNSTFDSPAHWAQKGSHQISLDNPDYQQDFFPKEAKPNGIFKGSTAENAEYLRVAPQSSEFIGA

SMILES	pIC50 [1]	pIC50 [2]	pIC50 [3]	pIC50 [4]
C#Cc1cc(=O)n(-c2ccccc2)c2cc(Nc3ccccc3OC)ncc12 [Example 3, 4-Ethynyl-7-[(2-methoxyphenyl)amino]-1-phenyl-1,6-naphthyridin-2-one]	< 5.52	< 5.52	< 5.52	< 5.00
C#Cc1cc(=O)n(-c2ccccc2)c2nc(Nc3ccc(N4CCOCC4)cc3)ncc12 [Example 6, 5-Ethynyl-2-((4-morpholinophenyl)amino)-8-phenylpyrido[2,3-d]pyrimidin-7(8H)-one]	> 6.30	> 6.30	5.52 to 6.00	> 6.00
C#Cc1cc(=O)n(-c2ccccc2)c2nc(Nc3ccc(N(C)C(=O)CN(C)C)cc3OC)ncc12 [Example 7, 2-(Dimethylamino)-N-(4-((5-ethynyl-7-oxo-8-phenyl-7,8-dihydropyrido[2,3-d]pyrimidin-2-yl)amino)-3-methoxyphenyl)-N-methylacetamide]	5.52 to 6.00	5.52 to 6.00	< 5.52	5.00 to 6.00
C#Cc1cc(=O)n(-c2ccccc2)c2nc(Nc3ccc(N(C)CCCN(C)C)cc3)ncc12 [Example 9, 2-((4-((3-(Dimethylamino)propyl)(methyl)amino)phenyl)amino)-5-ethynyl-8-phenylpyrido[2,3-d]pyrimidin-7(8H)-one]	> 6.30	> 6.30	< 5.52	> 6.00
C#Cc1cc(=O)n(-c2ccccc2)c2nc(NC3CCN(S(C)(=O)=O)CC3)ncc12 [Example 10, 5-Ethynyl-2-((1-(methylsulfonyl)piperidin-4-yl)amino)-8-phenylpyrido[2,3-d]pyrimidin-7(8H)-one]	< 5.52	< 5.52	< 5.52	> 6.00
C#Cc1cc(=O)n(-c2ccccc2)c2nc(Nc3ccc(N4CCN(C)CC4)c(C)c3)ncc12 [Example 12, 5-Ethynyl-2-{[3-methyl-4-(4-methylpiperazin-1-yl)phenyl]amino}-8-phenylpyrido[2,3-d]pyrimidin-7-one]	> 6.30	> 6.30	< 5.52	> 6.00
C#Cc1cc(=O)n(-c2ccccc2)c2nc(Nc3ccc(N4CCNCC4)cc3)ncc12 [Example 14, 5-Ethynyl-8-phenyl-2-{[4-(piperazin-1-yl)phenyl]amino}pyrido[2,3-d]pyrimidin-7-one]	> 6.30	> 6.30	< 5.52	> 6.00
C#Cc1cc(=O)n(-c2ccccc2)c2nc(Nc3ccc(N4CCN(CC)CC4)cc3)ncc12 [Example 15, 2-{[4-(4-Ethylpiperazin-1-yl)phenyl]amino}-5-ethynyl-8-phenylpyrido[2,3-d]pyrimidin-7-one]	> 6.30	> 6.30	< 5.52	> 6.00
C#Cc1cc(=O)n(-c2ccccc2)c2nc(Nc3ccc(N4CCN(C(C)C)CC4)cc3)ncc12 [Example 16, 5-Ethynyl-2-{[4-(4-isopropylpiperazin-1-yl)phenyl]amino}-8-phenylpyrido[2,3-d]pyrimidin-7-one]	> 6.30	> 6.30	5.52 to 6.00	> 6.00
C#Cc1cc(=O)n(-c2ccccc2)c2nc(Nc3ccc(N4CCN(CCO)CC4)cc3)ncc12 [Example 17, 5-ethynyl-2-({4-[4-(2-hydroxyethyl)piperazin-1-yl]phenyl}amino)-8-phenylpyrido[2,3-d]pyrimidin-7-one]	> 6.30	> 6.30	5.52 to 6.00	> 6.00
C#Cc1cc(=O)n(-c2ccccc2)c2nc(Nc3ccc(N4CCN(C5COC5)CC4)cc3)ncc12 [Example 18, 5-Ethynyl-2-({4-[4-(oxetan-3-yl)piperazin-1-yl]phenyl}amino)-8-phenylpyrido[2,3-d]pyrimidin-7-one]	> 6.30	> 6.30	5.52 to 6.00	> 6.00
C#Cc1c(-c2c(Cl)cccc2Cl)c(=O)n(C)c2nc(Nc3cccc(CO)c3)ncc12 [Example 125, 6-(2,6-dichlorophenyl)-5-ethynyl-2-{[3-(hydroxymethyl)phenyl]amino}-8-methylpyrido[2,3-d]pyrimidin-7-one]	< 5.52	< 5.52	< 5.52	–
C=Cc1c(-c2c(Cl)cccc2Cl)c(=O)n(C)c2nc(Nc3cccc(CO)c3)ncc12 [Example 164, 6-(2,6-dichlorophenyl)-5-ethenyl-2-{[3-(hydroxymethyl)phenyl]amino}-8-methylpyrido[2,3-d]pyrimidin-7-one]	–	–	–	< 5.00
C=Cc1c(-c2ccccc2Cl)c(=O)n(C)c2nc(Nc3ccc(N(C)CCN(C)C)cc3)ncc12 [Example 165, 6-(2-chlorophenyl)-2-[(4-{[2-(dimethylamino)ethyl](methyl)amino}phenyl)amino]-5-ethenyl-8-methylpyrido[2,3-d]pyrimidin-7-one]	–	–	–	< 5.00
C=Cc1c(Cc2ccccc2)c(=O)n(C)c2nc(Nc3ccc(N(C)CCN(C)C)cc3)ncc12 [Example 166, 6-benzyl-2-[(4-{[2-(dimethylamino)ethyl](methyl)amino}phenyl)amino]-5-ethenyl-8-methylpyrido[2,3-d]pyrimidin-7-one]	–	–	–	< 5.00
C=Cc1c(-c2c(Cl)cccc2Cl)c(=O)n(C)c2nc(Nc3ccc(N(C)CCN(C)C)cc3)ncc12 [Example 167, 6-(2,6-dichlorophenyl)-2-[(4-{[2-(dimethylamino)ethyl](methyl)amino}phenyl)amino]-5-ethenyl-8-methylpyrido[2,3-d]pyrimidin-7-one]	–	–	–	< 5.00
C=Cc1c(-c2ccccc2Cl)c(=O)n(C)c2nc(Nc3cccc(OC)c3)ncc12 [Example 168, 6-(2-chlorophenyl)-5-ethenyl-2-[(3-methoxyphenyl)amino]-8-methylpyrido[2,3-d]pyrimidin-7-one]	–	–	–	< 5.00
C=Cc1c(-c2ccccc2Cl)c(=O)n(C)c2nc(Nc3cccc(CO)c3)ncc12 [Example 169, 6-(2-chlorophenyl)-5-ethenyl-2-{[3-(hydroxymethyl)phenyl]amino}-8-methylpyrido[2,3-]pyrimidin-7-one]	–	–	–	5.00 to 6.00
C=Cc1c(-c2ccccc2Cl)c(=O)n(C)c2nc(N)ncc12 [Example 173, 2-amino-6-(2-chlorophenyl)-5-ethenyl-8-methylpyrido[2,3-d]pyrimidin-7-one]	–	–	–	< 5.00
C=Cc1c(-c2ccccc2Cl)c(=O)n(C)c2nc(NCCCCN3CCN(C)CC3)ncc12 [Example 174, 6-(2-chlorophenyl)-8-methyl-2-((4-(4-methylpiperazin-1-yl)butyl)amino)-5-vinylpyrido[2,3-d]pyrimidin-7(8H)-one]	–	–	–	< 5.00
C#Cc1cc(=O)n(C2CCCC2)c2nc(Nc3ccccc3N3CCCC(CS(C)(=O)=O)C3)ncc12 (stereo not shown) [Example 202, 8-Cyclopentyl-5-ethynyl-2-({2-[3-(methanesulfonylmethyl)piperidin-1-yl]phenyl}amino)pyrido[2,3-d]pyrimidin-7-one]	< 5.52	< 5.52	–	< 5.00
C#Cc1cc(=O)n(C2CCCC2)c2nc(Nc3cccc(N(C)[C@H]4CC[C@@H](CS(C)(=O)=O)CC4)c3)ncc12 [Example 204]	< 5.52	< 5.52	–	> 6.00
C#Cc1cc(=O)n2c3nc(ncc13)Nc1ccc(N3CCN(C)CC3)c(c1)OC[C@@H]1CC[C@@H](C1)C2 [Example 233, (5^1S,5^3R)-3^5-Ethynyl-1^4-(4-methylpiperazin-1-yl)-3^7,3^8-dihydro-7-oxa-2-aza-3(2,8)-pyrido[2,3-d]pyrimidina-1(1,3)-benzena-5(1,3)-cyclopentanacycloheptaphan-3^7-one]	> 6.30	> 6.30	–	> 6.00
